Experimental findings from paper PMC12862769 (ACS infectious diseases, 2025) are described below.

Data set [1] concerns mouse gut microbiome. In words: Mouse gut microbiome diversity in fecal pellets. Type of data set: in vivo, C57BL/6 mice. The settings on record: same regimens; day −1 vs day 7 (and 14).
Data set [2] relates to E. faecium NR-31909. In words: Multi-step resistance selection assay. Type of data set: cell-based. The settings on record: after five passages.

Regarding `CCC[C@@H]1C[C@@H](C(=O)N[C@@H]([C@H]2O[C@H](SC)[C@H](O)[C@@H](O)[C@H]2O)[C@H](C)Cl)N(C)C1` [clindamycin], the “change in beta diversity (Bray-Curtis dissimilarity), pre- vs post-treatment” value in data set [1] is on record as “significant change”.

As to `CO[C@H]1/C=C/O[C@@]2(C)Oc3c(C)c(O)c4c(O)c(c(/C=N/N5CCN(C)CC5)c(O)c4c3C2=O)NC(=O)/C(C)=C\C=C\[C@H](C)[C@H](O)[C@@H](C)[C@@H](O)[C@@H](C)[C@H](OC(C)=O)[C@@H]1C` [rifampicin], the MIC increase in data set [2] is reported as 8 fold MIC.
